One molecule from publication PMC12893914 (Nature, 2025) can be followed below.

Test [1] has as its target T1, MOR (Mus musculus, UniProt P42866). The class given is biochemical. The settings on record: mouse spinal cord membranes.
Test [2] deals with T1, MOR. In kind it is biochemical. The settings on record: mouse spinal cord membranes; 100 nM DAMGO pulse loading.

T1 sequence (P42866 whole entry): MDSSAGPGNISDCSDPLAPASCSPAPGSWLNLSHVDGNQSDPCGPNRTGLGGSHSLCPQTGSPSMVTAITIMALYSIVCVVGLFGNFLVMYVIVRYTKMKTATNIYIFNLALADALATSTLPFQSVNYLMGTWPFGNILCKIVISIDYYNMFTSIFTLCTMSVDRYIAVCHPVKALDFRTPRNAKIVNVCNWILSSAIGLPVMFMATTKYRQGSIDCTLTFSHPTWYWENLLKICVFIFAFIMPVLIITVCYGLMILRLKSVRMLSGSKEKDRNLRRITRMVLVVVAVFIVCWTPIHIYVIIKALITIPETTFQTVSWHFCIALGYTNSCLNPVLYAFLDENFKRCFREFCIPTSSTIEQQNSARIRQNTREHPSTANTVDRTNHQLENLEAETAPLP

In the case of `C[C@@H](NC(=O)[C@@H](N)Cc1ccc(O)cc1)C(=O)NCC(=O)N(C)[C@@H](Cc1ccccc1)C(=O)NCCO` [DAMGO, [D-Ala2, N-MePhe4, Gly-ol]-enkephalin], the “efficacy class in ^35S-GTPγS binding” value in test [1] is “full agonists”. In test [1] (10 µM DAMGO), the “stimulation of GTPγS binding over baseline” value came out at 40% and the “stimulation of ^35S-GTPγS binding over baseline” value is listed as 1.4 ± 0.01 fold. Further, the “efficacy in ^35S-GTPγS release” value in test [2] is recorded as “does not reach this plateau”.
